Test system: anti-DNP antibody
Test: Competition between free ethanolamine-DNP and DNP on a plate
Assay type: binding
Details: 1,000 ug/mL sera concentration
Procedure: The Mean fluorescence intensity (MFI) separation was greatest at the higher dilution of 1,000 ug/mL sera.

competition with the binding of DNP (on a plate) to anti-DNP antibody: direct competition
Compound: O=[N+]([O-])c1ccc(NCCO)c([N+](=O)[O-])c1 [ethanolamine-DNP]

From patent US20120269799A1, “DIAGNOSTIC AND TREATMENT METHODS USING A LIGAND LIBRARY” (priority 2011, published 2012)
